Measurements from ChEMBL document CHEMBL1201862, “PubChem BioAssay data set” (2004).
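Cultured in 96-well plates, cells were exposed to test compound for 48 hours across five concentrations. GI50 is the concentration that inhibits growth by half.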 The source made the active and inactive calls. Rule as the data show it: active = GI50 up to about 1.1 µM and inactive = higher.

What was measured:
Test in all cases: DTP human tumour cell line panel, 48 h
CCRF-CEM = tested on: CCRF-CEM
KM12 = tested on: KM12
SNB-75 = tested on: SNB-75
K562 = tested on: K562
UO-31 = tested on: UO-31
MOLT-4 = tested on: MOLT-4
OVCAR-5 = tested on: OVCAR-5
CAKI-1 = tested on: CAKI-1
LOX IMVI = tested on: LOX IMVI
ACHN = tested on: ACHN
NCI-H460 = tested on: NCI-H460
TK-10 = tested on: TK-10
SF-295 = tested on: SF-295
SK-OV-3 = tested on: SK-OV-3
COLO 205 = tested on: COLO 205
786-0 = tested on: 786-0
SN12C = tested on: SN12C
SNB-19 = tested on: SNB-19

Measured: GI50

O=S(=O)(c1ccccc1)n1cnc(CCc2ccccc2)n1
inactive: CCRF-CEM > 100 µM | KM12 > 100 µM | SNB-75 45.1 µM | K562 > 100 µM | UO-31 > 100 µM | MOLT-4 > 100 µM | OVCAR-5 > 100 µM | CAKI-1 > 100 µM | LOX IMVI > 100 µM | ACHN > 100 µM | NCI-H460 > 100 µM | TK-10 > 100 µM | SF-295 > 100 µM | SK-OV-3 > 100 µM | COLO 205 > 100 µM | 786-0 > 100 µM | SN12C > 100 µM

O=C(CC1(O)C(=O)Nc2c(Cl)cc(Cl)cc21)c1ccc([N+](=O)[O-])cc1 (centres undefined)
inactive: CCRF-CEM 26.7 µM | KM12 > 54.8 µM | SNB-75 29.2 µM | K562 43.4 µM | UO-31 17.4 µM | MOLT-4 > 59.4 µM | OVCAR-5 > 100 µM | CAKI-1 > 53.8 µM | LOX IMVI > 100 µM | ACHN 38.6 µM | NCI-H460 86.5 µM | SNB-19 > 100 µM | TK-10 > 100 µM | SF-295 > 66.1 µM | SK-OV-3 > 100 µM | COLO 205 > 58.5 µM | 786-0 85.3 µM | SN12C > 45.7 µM

O=c1cc2ccccc2nn1-c1ccccc1Cl
inactive: CCRF-CEM 86.3 µM | KM12 > 100 µM | SNB-75 59.6 µM | K562 59.6 µM | UO-31 26.2 µM | OVCAR-5 > 100 µM | CAKI-1 > 100 µM | LOX IMVI > 100 µM | ACHN > 100 µM | NCI-H460 > 100 µM | SNB-19 > 100 µM | TK-10 > 100 µM | SF-295 > 100 µM | SK-OV-3 > 100 µM | COLO 205 > 100 µM | 786-0 > 100 µM | SN12C > 100 µM

O=c1c(C(c2ccco2)c2c(O)oc3ccccc3c2=O)c(O)oc2ccccc12
inactive: CCRF-CEM 26.8 µM | KM12 > 100 µM | SNB-75 28.1 µM | K562 38.6 µM | UO-31 25.7 µM | MOLT-4 25.6 µM | CAKI-1 21.8 µM | LOX IMVI 28.2 µM | ACHN 27.1 µM | NCI-H460 > 100 µM | SNB-19 44.6 µM | TK-10 26.7 µM | COLO 205 22.3 µM | 786-0 25.1 µM | SN12C 25.1 µM

Cc1ccc(C(=O)/C=C/c2cccc([N+](=O)[O-])c2)cc1
inactive: CCRF-CEM 29.1 µM | KM12 24.1 µM | SNB-75 > 47.3 µM | K562 28.4 µM | UO-31 46.9 µM | MOLT-4 4.7 µM | CAKI-1 > 92 µM | LOX IMVI 66.4 µM | ACHN > 100 µM | NCI-H460 > 100 µM | SNB-19 60.1 µM | TK-10 > 100 µM | SF-295 55.5 µM | SK-OV-3 > 94.4 µM | COLO 205 > 40.7 µM | 786-0 28.4 µM | SN12C > 56.4 µM

C[C@@H](CO)C1=CC(C#C[Si](C)(C)C)N(C(=O)Oc2ccccc2)c2ccccc21 (some centres undefined)
inactive: CCRF-CEM 20.4 µM | KM12 14.2 µM | SNB-75 10.1 µM | K562 1.49 µM | UO-31 14.7 µM | MOLT-4 3.29 µM | OVCAR-5 19.8 µM | CAKI-1 24 µM | LOX IMVI 17.6 µM | ACHN 18.6 µM | NCI-H460 18.1 µM | SNB-19 27.2 µM | TK-10 31.1 µM | SF-295 12.2 µM | SK-OV-3 23.3 µM | COLO 205 23.8 µM | 786-0 17.2 µM | SN12C 16.8 µM

COC1=CC(=O)c2c(cc3c(c2O)-c2c(OC)cc4cc5c(c(O)c4c2OC(=O)CC(C)(O)C3)C(=O)CC(C)(O)C5)C1=O (centres undefined)
inactive: CCRF-CEM 1.95 µM | KM12 2.41 µM | SNB-75 1.29 µM | K562 2.44 µM | UO-31 1.73 µM | MOLT-4 2.27 µM | OVCAR-5 2.14 µM | CAKI-1 2.23 µM | LOX IMVI 1.22 µM | ACHN 2.64 µM | NCI-H460 1.31 µM | SNB-19 1.71 µM | TK-10 3.85 µM | SF-295 1.44 µM | SK-OV-3 2.76 µM | COLO 205 1.57 µM | 786-0 2.65 µM | SN12C 1.8 µM

CCCN1C(=O)C/C(=C\C(C)=O)Nc2ccccc21
inactive: CCRF-CEM > 100 µM | KM12 > 100 µM | SNB-75 > 100 µM | K562 > 100 µM | UO-31 > 100 µM | MOLT-4 > 100 µM | OVCAR-5 > 100 µM | CAKI-1 > 100 µM | LOX IMVI > 100 µM | ACHN > 100 µM | NCI-H460 > 100 µM | SNB-19 > 100 µM | TK-10 > 100 µM | SF-295 > 100 µM | SK-OV-3 > 100 µM | COLO 205 86.3 µM | 786-0 > 100 µM | SN12C > 100 µM

COc1ccccc1/C=C(\C#N)c1ccccc1
inactive: CCRF-CEM 17.7 µM | KM12 18.5 µM | SNB-75 25.9 µM | K562 11.4 µM | UO-31 28.8 µM | MOLT-4 16.6 µM | OVCAR-5 > 100 µM | CAKI-1 16.6 µM | LOX IMVI 46.9 µM | ACHN 59.4 µM | NCI-H460 23.8 µM | TK-10 40.7 µM | SF-295 52.7 µM | SK-OV-3 26.7 µM | COLO 205 15.6 µM | 786-0 20 µM | SN12C 49.1 µM

CCC(/C=C/c1ccccc1)=N\N=C(\C=C\c1ccccc1)CC
inactive: CCRF-CEM > 100 µM | KM12 > 100 µM | SNB-75 > 100 µM | K562 > 100 µM | UO-31 > 100 µM | MOLT-4 > 100 µM | OVCAR-5 > 100 µM | LOX IMVI > 100 µM | ACHN > 100 µM | NCI-H460 > 100 µM | SNB-19 > 100 µM | TK-10 > 100 µM | SF-295 > 100 µM | SK-OV-3 > 100 µM | COLO 205 > 100 µM | 786-0 > 100 µM | SN12C > 100 µM

O=c1cccccc1NCCCCCCCCNc1cccccc1=O
inactive: CCRF-CEM > 100 µM | KM12 > 100 µM | SNB-75 32.4 µM | K562 7.06 µM | UO-31 35.4 µM | MOLT-4 36.1 µM | OVCAR-5 > 100 µM | CAKI-1 > 100 µM | LOX IMVI 14.3 µM | ACHN 3.33 µM | NCI-H460 85.7 µM | SNB-19 38.1 µM | SF-295 18.8 µM | SK-OV-3 > 100 µM | COLO 205 > 100 µM | 786-0 > 100 µM | SN12C > 100 µM
